Reference: patent US9505798B2, “Steroid compounds as RORyt modulators and uses thereof” (New York University, priority 2010, dated 2016)
Read-outs that look alike come from different tables or passages of the source.

Experiments:
mouse RORγt = target: T1, mouse RORγt (Mus musculus, UniProt P51450); assay: Drosophila S2 cell RORγt luciferase reporter; type: cell-based; details: for effect on RORγ transcriptional activity: S2 reporter system
T1 construct: mouse RORγt (amino acids 79 to the carboxyl terminal end); expressed in transfected cells
T1 sequence (P51450 79-495 isoform P51450-2): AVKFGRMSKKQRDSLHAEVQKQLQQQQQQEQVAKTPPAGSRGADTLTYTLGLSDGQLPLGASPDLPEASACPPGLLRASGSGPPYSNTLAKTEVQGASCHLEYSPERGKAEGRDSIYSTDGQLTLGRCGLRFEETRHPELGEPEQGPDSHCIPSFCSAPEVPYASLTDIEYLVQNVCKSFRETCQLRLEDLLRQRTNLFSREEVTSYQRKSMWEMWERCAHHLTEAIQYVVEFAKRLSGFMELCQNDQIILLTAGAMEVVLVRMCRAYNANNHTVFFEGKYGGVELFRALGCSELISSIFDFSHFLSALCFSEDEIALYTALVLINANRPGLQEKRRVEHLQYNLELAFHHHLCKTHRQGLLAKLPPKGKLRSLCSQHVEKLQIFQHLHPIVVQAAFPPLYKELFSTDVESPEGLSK
From the text: The Drosophila S2 cell line was originally purchased from Invitrogen and was maintained in Schneider's medium supplemented with 10% heat-inactivated bovine fetal calf serum and antibiotics (Invitrogen). […] The resulting chimeric gene was subcloned into the copper inducible pMT/V5-His A vector (Invitrogen). […] Coding sequences for firefly luciferase (Promega) were PCR amplified and subcloned into pUAST vector containing Gal4 binding enhancer sequences. Renilla luciferase construct under the polIII promoter was obtained from Dr. Dasgupta's laboratory (NYU medical center). In order to generate stable cell lines, cells were co-transfected with pMT-G4 DBD-RORγt, pMT-G4 DBD-RORα, pMT-G4 DBD-DHR3, or pMT-G4 DBDVP16 and pHygro plasmids (Invitrogen) and screened for resistant colonies in the presence of hygromycin (0.3 mg/mL). […] Using similar methods, stable clones with genomic integration of the luciferase reporters and other reporters were generated such as pMT-RORα_luc, pMT-DHR3_Luc, or pMT-VP16_luc.
(§1) The following representative compounds are tested for their RORγt inhibitory activity and toxicity.
Promega Dual-Glo system is widely used for HTS as the luciferase substrates. Cell culture medium was reduced to the final volume of 10 μl or less and 10 μl of Dual-glo and 10 μl of Stop-glo luciferase substrates were added in a sequencial manner (Promega). Firefly and Renilla luciferase activity was determined by measuring luminescence signals using an automated 384-well plate reader equipped with multiple stack units (such as the Analyst GT or Envision plate readers).
10,000 Drosophila stable S2 cells with genomic integration of the Cu2+-inducible G4 DBD-mouse RORγ construct were transfected with 5 ng of pUASTfirefly luciferase and 7 ng of Pol III-Renilla luciferase and dispensed into white bottom-tissue culture 384-well plates (Corning). […] The following morning, Stop-glo luciferase substrates (Promega) were used to measure luciferase activity.
The Drosophila S2 cell line was originally purchased from Invitrogen and was maintained in Schneider's Drosophila medium supplemented with 10% heat-inactivated bovine fetal calf serum and 1× antibiotic-antimycotic solution (Invitrogen). […] The resulting chimeric gene was subcloned into the copper inducible pMT/V5-His A vector (Invitrogen) and into the constitutive pAc vector. […] Coding sequences for firefly luciferase (Promega) were PCR amplified and subcloned into the pUAST vector containing five Gal4 binding enhancer sequences. The Renilla luciferase construct under a pol III promoter and the pAc vector were obtained from R. Dasgupta (NYU School of Medicine). To generate cell lines stably expressing various chimeric proteins upon copper addition, S2 cells were co-transfected with pMT plasmids encoding individual G4 DBD chimeric constructs and the pCoHygro plasmid (Invitrogen), before screening for resistant colonies in the presence of hygromycin (0.3 mg/mL). […] The human androgen receptor (hAR) expression plasmid pMK33-hAR and its reporter TAT3-Luc were obtained from M. Garabedian (NYU School of Medicine). […] R1881 (10 nM) and Dafachronic acid (10 μM) were used as ligands for hAR and Daf12. Upon treatment of cells with copper, in 384 well plates, there was specific increase in firefly luciferase activity versus normalized Renilla luciferase activity for all cell lines described above, validating the method for high-throughput screen.
Transfections of firefly and Renilla reporter constructs were performed using the Effectene kit from Qiagen according to the manufacturer's protocol with some modifications.

RORγt = target: T2, RORγt (Mus musculus, UniProt P51450); type: cell-based; details: mouse T cells
T2 construct: expressed in transfected cells; host or cells: mouse naive CD4+ T cells, retroviral MIGr vector
T2 sequence (P51450 other isoform, or with tags, fused parts or gaps): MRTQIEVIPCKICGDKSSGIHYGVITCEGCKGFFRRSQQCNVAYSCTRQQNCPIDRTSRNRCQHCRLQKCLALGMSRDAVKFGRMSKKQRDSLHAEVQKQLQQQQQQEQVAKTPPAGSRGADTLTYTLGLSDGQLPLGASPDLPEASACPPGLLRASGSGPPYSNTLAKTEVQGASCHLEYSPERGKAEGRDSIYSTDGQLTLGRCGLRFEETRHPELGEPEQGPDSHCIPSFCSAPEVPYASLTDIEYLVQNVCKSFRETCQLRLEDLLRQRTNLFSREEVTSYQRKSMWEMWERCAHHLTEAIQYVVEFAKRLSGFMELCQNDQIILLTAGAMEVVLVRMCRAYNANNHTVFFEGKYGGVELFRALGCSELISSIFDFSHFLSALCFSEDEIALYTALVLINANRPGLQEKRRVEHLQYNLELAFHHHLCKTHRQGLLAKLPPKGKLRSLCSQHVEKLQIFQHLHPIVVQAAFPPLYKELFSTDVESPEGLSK
Description: Naive CD25^− CD62L^+CD44^low/int cells were sorted from RORγt^fl/fl mice and transduced with control-IRES-GFP (WT) or CRE-IRES-GFP (KO) retrovirus. […] FACS-sorted naive T cells were transduced with retroviral vectors encoding murine RORα-IRES-GFP or RORγt-IRES-GFP on Day 1 (16 h after TCR stimulation) and GFP expressing cells were gated for analysis on Day 5. […] Lymphocytes were isolated on day 21 after disease induction. The cells were stimulated for 4 h with PMA/Ionomycin and stained for surface markers and intracellular cytokines.
T cells were purified from lymph nodes and spleens of six to eight weeks old B6 mice (Taconic), by magnetically depleting B220^+ cells (autoMACS, Miltenyi), and then sorting CD8^−DAPI^−CD19^−CD4^+CD25^−CD62L^+CD44^low/Int naive T cells on a FACSAria (BD). […] For T cell polarization, 200 μl cells were seeded at 0.4×10^5 cells per mL in 96-well plates pre-coated with anti-CD3ε (5 μg/mL) and anti-CD28 (10 μg/mL). Cells were cultured for 4-5 days in Th17 (TGF-β (0.3 ng/mL), IL-6 (20 ng/mL), and anti-IFN-γ and anti-IL-4 (2 ng/mL)), Th1 (IL-12 (10 ng/mL), IL-2 (10 U/mL) and anti-IL-4 (2 ng/mL)), or Th2 (IL-4 (10 ng/mL), and anti-P35 and anti-IFN-γ 2 ng/mL)) conditions. For ectopic expression ROR proteins, native CD4^+ T cells were infected with retroviral MIGr-control, MIGr-RORα or MIGr-RORγ 24 hrs after activation, and cultured without exogenous cytokines or only with IL-6. At day 1, compounds dissolved in DMSO were added. For cytokine analysis, cells were incubated for 5 hours with phorbol 12-myristate 13-acetate (50 ng/mL; Sigma), ionomycin (500 ng/mL; Sigma) and GolgiStop (BD). Intracellular cytokine staining was performed according to the manufacturer's protocol (Cytofix/Cytoperm buffer set from BD) with alexa647-conjugated anti-IL-17a (eBioscience), and PE-conjugated anti-IFN-γ or anti-IL-4 (eBioscience). An LSR II (BD Biosciences) and FlowJo software (Tree Star) were used for flow cytometry and analysis. Dead cells were excluded using the Live/Dead fixable aqua dead cell stain kit (Invitrogen).

[1] = system: human embryonic kidney 293t cell lines; assay: Toxicity on human embryonic kidney 293T cells; details: human embryonic kidney 293t cell lines
Description: as §1

[2] = system: experimental autoimmune encephalomyelitis (EAE); assay: Active EAE (MOG35-55/CFA) in C57BL/6 mice; type: in vivo, mouse; details: IP daily from day 2

C[C@@H]1O[C@@H](O[C@@H]2C=C3CC[C@@H]4[C@H](CC[C@]5(C)[C@@H](c6ccc(=O)oc6)CC[C@]45O)[C@@]3(C)CC2)[C@H](O)[C@H](O)[C@H]1O [proscillaridin A, Proscillaridin A]
effect on RORγ transcriptional activity (mouse RORγt): no significant effect

CC1O[C@@H](OC2C(C)O[C@H](OC3C(C)O[C@@H](O[C@H]4CC[C@@]5(C)[C@H](CC[C@@H]6[C@@H]5C[C@@H](O)[C@]5(C)[C@@H](C7CC(O)OC7Cc7ccccc7O)CC[C@]65O)C4)C[C@H]3O)C[C@H]2O)C[C@@H](O)C1O (stereo partly shown) [Compound 20]
IC50 (mouse RORγt): > 20 µM

CO[C@H]1C[C@H](O[C@H]2CC[C@@]3(C)[C@H](CC[C@@H]4[C@@H]3CC[C@]3(C)[C@@H](C5=CC(=O)OC5)[C@@H](OC(C)=O)C[C@]43O)C2)O[C@@H](C)[C@@H]1O [oleandrin, Oleandrin]
effect on RORγ transcriptional activity (mouse RORγt): no significant effect

C[C@]12CC[C@H](O)C[C@H]1CC[C@@H]1[C@@H]2CC[C@]2(C)[C@@H](C3=CC(=O)OC3)CC[C@]12O [digitoxigenin, Digitoxigenin]
effect on RORγ transcriptional activity (mouse RORγt): no significant effect

C[C@@H]1O[C@@H](O[C@H]2C[C@@H](O)[C@]3(CO)[C@H]4[C@H](O)C[C@]5(C)[C@@H](C6=CC(=O)OC6)CC[C@]5(O)[C@@H]4CC[C@]3(O)C2)[C@H](O)[C@H](O)[C@H]1O [ouabain, Ouabain octahydrate]
effect on RORγ transcriptional activity (mouse RORγt): no significant effect

β-acetyldigoxin
effect on RORγ transcriptional activity (mouse RORγt): selectively inhibited RORγ with similar IC50 values
RORγt-dependent Th17 cell differentiation (RORγt): selectively inhibited

CC1O[C@@H](OC2C(C)O[C@H](OC3C(C)O[C@@H](O[C@H]4CC[C@@]5(C)[C@H](CC[C@@H]6[C@@H]5C[C@@H](O)[C@]5(C)[C@@H](C7=CC(=O)OC7Cc7ccccc7O)CC[C@]65O)C4)C[C@H]3O)C[C@H]2O)C[C@@H](O)C1O (stereo partly shown) [Compound 18, Digoxin-21-salicylyl]
IC50 (mouse RORγt): < 1 µM
Human cell toxicity [1]: xxx (cytotoxicity between 1-10 μM)

C[C@H]1O[C@@H](O[C@H]2CC[C@]3(C=O)[C@H]4CC[C@]5(C)[C@@H](C6=CC(=O)OC6)CC[C@]5(O)[C@@H]4CC[C@]3(O)C2)C[C@H](O)[C@@H]1O[C@@H]1O[C@H](CO)[C@@H](O)[C@H](O)[C@H]1O [erysimoside, Erysimoside]
effect on RORγ transcriptional activity (mouse RORγt): no significant effect

CC(=O)OC1C(C)O[C@@H](OC2C(C)O[C@H](OC3C(C)O[C@@H](O[C@H]4CC[C@@]5(C)[C@H](CC[C@@H]6[C@@H]5C[C@@H](OC(C)=O)[C@]5(C)[C@@H](C7=CC(=O)OC7)CC[C@]65O)C4)C[C@H]3OC(C)=O)C[C@H]2OC(C)=O)C[C@H]1OC(C)=O (stereo partly shown) [Compound 21]
IC50 (mouse RORγt): > 20 µM

C[C@H]1O[C@@H](O[C@H]2[C@@H](O)C[C@H](O[C@H]3[C@@H](O)C[C@H](O[C@H]4CC[C@@]5(C)[C@H](CC[C@@H]6[C@@H]5CC[C@]5(C)[C@@H](C7=CC(=O)OC7)CC[C@]65O)C4)O[C@@H]3C)O[C@@H]2C)C[C@H](O)[C@@H]1O [Digitoxin]
effect on RORγ transcriptional activity (mouse RORγt): selectively inhibited RORγ with similar IC50 values
RORγt-dependent Th17 cell differentiation (RORγt): selectively inhibited

COC(=O)C1CCC2(O)C3CCC4CC(OC5CC(O)C(OC6CC(O)C(OC7CC(O)C(O)C(C)O7)C(C)O6)C(C)O5)CCC4(C)C3CC(O)C12C (stereo not shown) [Compound 24]
IC50 (mouse RORγt; S2 cell RORγt reporter, read-out: IC50): 1 to 10 µM

C[C@]12C[C@@H](O)[C@H]3[C@@H](CC[C@]4(O)C[C@@H](O)C[C@@H](O)[C@]34CO)[C@@]1(O)CC[C@@H]2C1=CC(=O)OC1 [ouabagenin, Ouabagenin]
effect on RORγ transcriptional activity (mouse RORγt): no significant effect

CC1O[C@@H](OC2C(C)O[C@H](OC3C(C)O[C@@H](O[C@H]4CC[C@@]5(C)[C@H](CC[C@@H]6[C@@H]5C[C@@H](O)[C@]5(C)[C@@H](C7CC(=O)OC7Cc7ccccc7O)CC[C@]65O)C4)C[C@H]3O)C[C@H]2O)C[C@@H](O)C1O (stereo partly shown) [Compound 19]
IC50 (mouse RORγt): 1 to 10 µM
Human cell toxicity [1]: xxx (cytotoxicity between 1-10 μM)

C[C@]12CC[C@H](O)C[C@H]1CC[C@@H]1[C@@H]2C[C@@H](O)[C@]2(C)[C@@H](C3=CC(=O)OC3)CC[C@]12O [digoxigenin, Digoxigenin]
EAE onset and severity of progression [2]: no effect

C[C@H]1O[C@@H](O[C@H]2CC[C@@]3(C)[C@H](CC[C@@H]4[C@@H]3C[C@@H](O)[C@]3(C)[C@@H](C5=CC(=O)OC5)CC[C@]43O)C2)C[C@H](O)[C@@H]1O[C@H]1C[C@H](O)[C@H](O[C@H]2C[C@H](O)[C@H](O[C@@H]3O[C@H](CO)[C@@H](O)[C@H](O)[C@H]3O)[C@@H](C)O2)[C@@H](C)O1 [deslanoside, Deslanoside]
effect on RORγ transcriptional activity (mouse RORγt): no significant effect
